Assay results from patent publication US5108916A, “Process for stereoselectively hydrolyzing, transesterifying or esterifying with immobilized isozyme of lipase from Candida rugosa” (priority 1989, dated 1992).
“And” between values parts separate entries of the source, which are not always exact repeats. Equal values may be shown once. Read-outs that look alike come from different tables or passages of the source.

Legend:
[1] = tested on: CSC-2; experiment: Effect of additives and solvents on hydrolysis of ketoprofen monoglyceride by CSC-2; assay type: biochemical, Candida rugosa
Protocol: Hydrolysis of ketoprofen-monoglyceride (50mg) was carried out in various DMF-100mM (NH4)H2 PO4 buffer (pH 5.5) mixtures. In each flask a solution of ketoprofen monoglyceride (50mg) in DMF (200ul) was added. DMF was added followed by 100mM (NH4)H2 PO4 buffer. […] After 22 hours, 2%, 5%, and 10% DMF samples were acidified, extracted with CHCl3 (2×10ml) and analyzed. The other samples were analyzed directly as in Example 18. The acid produced decreases with increasing amount of DMF.
Small amounts of DMF were added to the reaction mixture to increase the solubility of KPG. In all cases 100mM ammonium phosphate buffer (pH 5.5) was used and 2% (v/v) detergents were added and the total volume was 10ml.
The buffer reaction (entry #2 in the table) contained enzyme in buffer (2 ml) and the buffer only (entry #1 in the table) reaction contained no enzyme.
The presence of a surfactant like Tween increases the solubility o lipophilic compounds in water. […] Tween 80 was added to make 1% and 2% solution (v/v). Bovine serum albumin (BSA) (10mg) was added to each of two flasks. A solution of 50mg of ketoprofen monoglyceride in 200ul DMF was added to each. After 20 hours at 250 rpm and 35° C. the reaction mixtures were acidified, extracted and analyzed by the usual HPLC procedure as in Example 18.
Various surfactants were used at 2% of the reaction volume to determine their effect on the enzymatic reaction involving the conversion of ketoprofen monoglyceride (KPG) to ketoprofen (KP). […] Flasks were covered with parafilm and incubated in a 35° C. water bath at 250 rpm, typically overnight. Reactions were stopped by acidification, extracted with CHCl3 (2×10 ml). The %acid and %ee were determined by the method of Example 18. It is to be noted that Hydrophile-Lipophile Balance (HLB) values have no apparent bearing on the ability of the surfactant to enhance the conversion of KPG to KP.
75 mg of KPG (in the absence of DMF) was individually weighed into 50 ml Erlenmeyer flasks. […] 9 ml of 100 mM (NH4)H2 PO4, pH 5.5 buffer was added, and the flasks were placed into a 35° C., 250 rpm water bath incubator for 20 hours. The reactions were acidified, extracted with CHCl3 and examined by HPLC as in Example 18. The %ee was determined as per Example 18.
Various amounts of oleic acid or its esters were added, and the reactions stopped at the times indicated, acidified, extracted with CHCl3 and analyzed as in Example 18.
An experiment was performed as in Example 41, but using 100, 200 and 500 ul of olive oil to determine if it would enhance the rate of conversion of KPG to KP. […] After 20 hours, all reactions were acidified, extracted with CHCl3 and analyzed by HPLC as in Example 18. The results are given below:
50 mg of KPG was weighed into Erlenmeyer flasks. […] Flasks were incubated at 35° C., 250 rpm for 23 hours. The reactions were stopped by acidification, extracted with CHCl3, and analyzed by HPLC as in Example 18. The additive is listed along with its percentage composition of glycerides of oleic acid.
To determine the problems associated with having oleic acid or oleate. esters in the reaction media, the following experiment was performed. […] Flasks were placed in a 35° C. incubator at 250 rpm, and the reactions were sampled by taking 200 ul aliquots at various time points. These aliquots were analyzed by HPLC (ODS-3 RAC column, CH3 OH: 10 mM (NH4)H2 PO4 (60:40) eluant, 4 ml/min, 254 nm detection) to determine the course of reaction. When approximately 40% acid was produced, the reactions were stopped by placing the flasks in the -70° C. freezer. Two extraction procedures were utilized to determine the best method of isolating S-Ketoprofen free of oleic acid. The first (listed as Extraction Procedure I in the following table) involved first making the solution basic (pH 10) with NaOH, then extracting with hexane, then CHCl3.

[2] = Conversion of ketoprofen esters in organic solvent/oleic acid media; assay type: biochemical
Protocol: To optimize the organic solvent used in the presence of oleic acid a variety of organic solvents were used, along with a variety of ketoprofen esters. In this experiment, 50 mg of ketoprofen esters were weighed into flasks, along with 1 ml of oleic acid and 9 ml of an organic solvent. The flasks were capped and incubated at 35° C., 250 rpm, for 10-26 hours before stopping the reaction by first adding 4 ml CHCl3 to solubilize the substrates and products, then filtering through a 0.2 um Gelman Nylaflo filter. Samples were then diluted in methanol and analyzed by HPLC as in Example 18. The experiment was also performed using 200 ul of oleic acid and 10ml buffer, which was acidified, extracted with CHCl3 and analyzed by HPLC as above.
One ml of oleic acid was added, as was 9 ml of buffer (100 mM (NH4)H2 PO4, pH 5.5) or organic solvent. Flasks were placed into a 35° C. incubator and shaken at 250 rpm for 13 hours. Reaction was stopped by adding 5 ml CHCl3 to solubilize the organic material and filtering the solutions using 0.2 um Gelman Nylaflo membranes to remove the enzyme. Samples were analyzed on an ODS-3 RAC column using CH3 OH:10 mM (NH4)H2PO4 (60:40) as eluant, flow rate 4 ml/min, and detection at 254 nm. %ee was determined by the resolution of diastereomeric amides on the above HPLC system, as per Example 18.

[3] = tested on: Lipase MY; experiment: Two phase Lipase MY hydrolysis of HPPA-Me in organic solvent/water mixtures; assay type: biochemical, Candida rugosa; conditions: 43 hr
Protocol: A. 75% organic solvent/25% aqueous buffer--Fifty milligrams of R,S-HPPA-Me was combined in 10 ml Scintillation vial with 7.5 ml of organic solvent, 2.5 ml of 50 mM phosphate buffer pH 6.0, and 5 mg Lipase MY. The reactions were placed on shaker and shaken for a period of 0-43 hours with samples being taken at various times.
B. 25% organic solvent/75% aqueous buffer--Fifty milligrams of R,S-HPPA-Me was combined, in 10 ml Scintillation vial with 2.5 ml of organic solvent, 7.5 ml 50mM phosphate buffer (pH 6.8), and 5 mg Lipase MY. The reactions were shaken for a period of 0-143 hours with samples being taken at various time points.
The data in Table 2 represents the % conversion and % R-HPPA produced using the indicated organic solvents in a two-phase system wherein 75% […] of the total vehicle (solvent) was water and the balance (25%) was organic solvents.

[4] = solvent/buffer 1:1 two phase, 26 hours
[5] = solvent/buffer 1:1 two phase, 26 hours, buffer = 100
[6] = KPG 50 mg, 100 mg CSC-2 on silica (279-SD-1), 9 ml solvent (or buffer)/1 ml oleic acid, 13 hours
[7] = Buffer 10 ml, OA 200 ul, enzyme not named in Example 55
[8] = Hexane 9 ml, OA 1 ml, 10-26 hours
[9] = Hexane 9 ml, OA 1 ml, * stopped at 10 Hr
[10] = Isooctane 9 ml, OA 1 ml, * stopped at 10 Hr

SMILES | EE of S-acid [1, 4] | Relative Rate [1, 5] | % Acid ([2]; KPEG 50 mg, as E212) | % ee S-acid ([2]; KPEG, as E212) | % Acid [2, 6] | % ee S-acid ([2]; KPG, as E212) | further results
CC(Cl)(Cl)Cl [1,1,1-Trichloroethane] | 75% | 25 | 0% | 0% | 1% | 0% | 
ClCC(Cl)Cl [1,1,2 trichloroethane] |  |  |  |  |  |  | % R ([3]; solvent 25%): 79%; Conversion (ester/acid) ([3]; solvent 25%): 29%; Relative Rate ([1]; solvent/buffer 1:1 two phase, 16 hour reactions): 0
c1ccc2c(c1)CCCC2 [1,2,3,4-Tetrahydronapthalene] | 85% | 136 | 1% | 1% | 2% | 68% | 
BrCCBr [1,2-dibromoethane] |  |  |  |  |  |  | % R ([3]; solvent 25%): 73%; Conversion (ester/acid) ([3]; solvent 25%): 33%; % R ([3]; solvent 75%): 57%; Conversion (ester/acid) ([3]; solvent 75%): 23%
CC(C)O [2-propanol] |  |  |  |  |  |  | % R ([3]; solvent 25%): 0%; Conversion (ester/acid) ([3]; solvent 25%): 0%; % R ([3]; solvent 75%): 0%; Conversion (ester/acid) ([3]; solvent 75%): 0%
C1=CCCCC1 [Cyclohexene] | 89% | 146 | 3% | 52% | 12% | 94% | 
C1=CCCCCCC1 [Cyclooctene] | 95% | 387 | 16% | 92% | 38% | 98% | 
CC(C(=O)OCCOCCO)c1cccc(C(=O)c2ccccc2)c1 (centres unmarked) [Diethylene glycol ester, Diethylene Glycol Ester of Ketoprofen] |  |  |  |  |  |  | % ee ([2]; Buffer 10 ml, OA 200 ul): 30%; % Acid [2, 7]: 32%; % Acid [2, 8]: 56%; % ee [2, 9]: 13%; % Acid ([2]; Isooctane 9 ml, OA 1 ml): 60%; % ee [2, 10]: 17%
CC(C(=O)OCCO)c1cccc(C(=O)c2ccccc2)c1 (centres unmarked) [Ethylene Glycol Ester, ketoprofen ethylene glycol] |  |  |  |  |  |  | % ee ([2]; Buffer 10 ml, OA 200 ul): 98%; % Acid [2, 7]: 21%; % Acid ([2]; CHCl3 9 ml, OA 1 ml): 0%; % Acid [2, 8]: 29%; % ee [2, 9]: 95%; % Acid ([2]; Isooctane 9 ml, OA 1 ml): 47%; % ee [2, 10]: 98%; % Acid ([2]; Toluene 9 ml, OA 1 ml): 0%
CCCCCC [Hexane] |  |  |  |  |  |  | EE of S-acid [1]: 93%; Relative Rate ([1]; pH 5.5, 1560 min): 80; % Acid [2]: 12% and 16%; % ee S-acid [2]: 94% and 87%
CC(C)CC(C)(C)C [Isooctane] | 96% | 214 | 48% | 97% | 39% | 98% | 
